The numbers were not newly measured in patent US20230354819A1 (priority 2020, published 2023), which cites them from elsewhere.

SMILES strings stand for the structures. Bridge positions count the residues as written; N and C are the ends. Square brackets hold non-standard residues; d marks the D form. Peptide text beside a SMILES is read from it. * marks the point of attachment. ξ: configuration not given here. Pentadecanoyl(3ξ-OH,15-Gua) = N=C(N)NCCCCCCCCCCCCC(O)CC(=O)*; d(aThr) = C[C@@H](O)[C@@H](N)C(=O)O

In this data set the test system is cultured parsley cells. Particulars: WO 2006/016558.

For `CC(C)[C@@H]1NC(=O)[C@@H](C(C)C)NC(=O)[C@@H](NC(=O)CC(O)CCCCCCCCCCCCN=C(N)N)[C@@H](C)OC(=O)[C@@H](C)NC(=O)[C@@H](CC(N)=O)NC(=O)[C@@H]([C@@H](C)O)NC1=O` (some centres unmarked) [fusaricidin A] ({Pentadecanoyl(3ξ-OH,15-Gua)}-T[dV]V[d(aThr)][dN][dA]; ester 1-C), the “induction of resistance reactions” value was “induce resistance reactions”.

With `CC(C)[C@@H]1NC(=O)[C@@H](C(C)C)NC(=O)[C@@H](NC(=O)CC(O)CCCCCCCCCCCCN=C(N)N)C(C)OC(=O)[C@@H](C)NC(=O)[C@@H](CCC(N)=O)NC(=O)[C@@H]([C@H](C)O)NC1=O` (stereo in doubt) [fusaricidin B], the “induction of resistance reactions” value was “induce resistance reactions”.
